Measured values taken from PubChem BioAssay AID248 (DTP/NCI, 2004).
Where “and” joins values, the source holds several entries; their conditions need not be identical. Equal values may be shown once. Toxic doses and inconclusive results are not listed. Rule as the data show it: active = T/C of 150% or more; inactive = T/C below 125%.

Test system: L1210 leukemia ip in BDF1 mice, survival T/C
Experiment: NCI In Vivo Anticancer Drug Screen. Data for tumor model L1210 Leukemia (intraperitoneal) in B6D2F1 (BDF1) mice
Conditions: endpoint: mean survival time, higher = longer survival
Outline: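 Value reflects the ratio of survival in compound-treated mice to survival in vehicle-treated controls, with both groups carrying the same transplanted tumor.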

[1] = dose: 100.0 mg/kg/injection, schedule: Q04DX003 (ip), vehicle: saline with Tween-80
[2] = dose: 200.0 mg/kg/injection, schedule: Q01DX009 (ip), vehicle: saline with Tween-80
[3] = dose: 200.0 mg/kg/injection, schedule: Q04DX003 (ip), vehicle: saline with Tween-80
[4] = dose: 400.0 mg/kg/injection, schedule: Q01DX009 (ip), vehicle: saline with Tween-80
[5] = dose: 400.0 mg/kg/injection, schedule: Q04DX003 (ip), vehicle: saline with Tween-80
[6] = dose: 100.0 mg/kg/injection, schedule: Q04DX003 (ip), vehicle: Klucel (hydroxypropylcellulose) (HPC)
[7] = dose: 200.0 mg/kg/injection, schedule: Q04DX003 (ip), vehicle: Klucel (hydroxypropylcellulose) (HPC)
[8] = dose: 400.0 mg/kg/injection, schedule: Q04DX003 (ip), vehicle: Klucel (hydroxypropylcellulose) (HPC)
[9] = dose: 100.0 mg/kg/injection, schedule: Q01DX009 (ip), vehicle: Klucel (hydroxypropylcellulose) (HPC)
[10] = dose: 200.0 mg/kg/injection, schedule: Q01DX009 (ip), vehicle: Klucel (hydroxypropylcellulose) (HPC)
[11] = dose: 400.0 mg/kg/injection, schedule: Q01DX009 (ip), vehicle: Klucel (hydroxypropylcellulose) (HPC)
[12] = dose: 100.0 mg/kg/injection, schedule: Q04DX003 (ip), vehicle: acetone
[13] = dose: 200.0 mg/kg/injection, schedule: Q04DX003 (ip), vehicle: acetone
[14] = dose: 400.0 mg/kg/injection, schedule: Q04DX003 (ip), vehicle: acetone

Measured: T/C

CCCCCNc1ccc(C(=O)O)cc1
inactive: dose: 37.5 mg/kg/injection, schedule: Q01DX009 (ip), vehicle: saline 100 % of control | dose: 75.0 mg/kg/injection, schedule: Q01DX001 (ip), vehicle: acetone 88 % of control | dose: 75.0 mg/kg/injection, schedule: Q01DX009 (ip), vehicle: saline 95 % of control | dose: 75.0 mg/kg/injection, schedule: Q04DX003 (ip), vehicle: saline 100 % of control | dose: 150.0 mg/kg/injection, schedule: Q01DX001 (ip), vehicle: acetone 96 % of control | dose: 150.0 mg/kg/injection, schedule: Q01DX009 (ip), vehicle: saline 92 % of control | dose: 150.0 mg/kg/injection, schedule: Q04DX003 (ip), vehicle: saline 97 % of control | dose: 300.0 mg/kg/injection, schedule: Q01DX001 (ip), vehicle: acetone 102 % of control | dose: 300.0 mg/kg/injection, schedule: Q04DX003 (ip), vehicle: saline 97 % of control

Cc1cc(Cl)ccc1NC(=O)Oc1cc(C)c(Cl)c(C)c1Cl
inactive: dose: 25.0 mg/kg/injection, schedule: Q01DX009 (ip), vehicle: saline with Tween-80 100 % of control and 90 % of control | dose: 50.0 mg/kg/injection, schedule: Q01DX009 (ip), vehicle: saline with Tween-80 95 % of control and 103 % of control | dose: 100.0 mg/kg/injection, schedule: Q01DX001 (ip), vehicle: saline with Tween-80 94 % of control | [1] 93 % of control and 109 % of control | dose: 200.0 mg/kg/injection, schedule: Q01DX001 (ip), vehicle: saline with Tween-80 97 % of control | [2] 97 % of control and 105 % of control | [3] 97 % of control and 108 % of control | dose: 400.0 mg/kg/injection, schedule: Q01DX001 (ip), vehicle: saline with Tween-80 101 % of control | [4] 90 % of control | [5] 103 % of control and 113 % of control

O=C(CCCl)Nc1ccc(S(=O)(=O)Nc2nccs2)cc1
inactive: dose: 100.0 mg/kg/injection, schedule: Q01DX001 (ip), vehicle: other 101 % of control | dose: 200.0 mg/kg/injection, schedule: Q01DX001 (ip), vehicle: other 95 % of control | dose: 400.0 mg/kg/injection, schedule: Q01DX001 (ip), vehicle: other 97 % of control

COc1ccc(C(=O)NCCc2ccccc2)cc1
inactive: [6] 96 % of control | [7] 105 % of control | [8] 104 % of control

CCCCCOC(=O)C(C)(O)C(Cl)c1ccccc1 (stereo not drawn)
inactive: dose: 100.0 mg/kg/injection, schedule: Q04DX002 (ip), vehicle: saline 102 % of control and 106 % of control | dose: 200.0 mg/kg/injection, schedule: Q04DX002 (ip), vehicle: saline 98 % of control and 103 % of control | dose: 400.0 mg/kg/injection, schedule: Q04DX002 (ip), vehicle: saline 91 % of control | dose: 600.0 mg/kg/injection, schedule: Q04DX002 (ip), vehicle: saline 117 % of control

CC(C)=NNC(=O)COCC(=O)NN=C(C)C
inactive: [9] 97 % of control | [10] 112 % of control | [11] 109 % of control

COC1=CCC2=C(C1)CC(C)O2 (stereo not drawn)
inactive: [12] 93 % of control | [13] 102 % of control | [14] 93 % of control

CC(C)CN(CC(C)C)/N=C/c1cc([N+](=O)[O-])ccc1O
inactive: dose: 100.0 mg/kg/injection, schedule: Q04DX002 (ip), vehicle: saline with Tween-80 97 % of control | dose: 200.0 mg/kg/injection, schedule: Q04DX002 (ip), vehicle: saline with Tween-80 91 % of control | dose: 400.0 mg/kg/injection, schedule: Q04DX002 (ip), vehicle: saline with Tween-80 87 % of control

COP(=O)(NNc1cc(Cl)ccc1Cl)OC
inactive: [1] 104 % of control | [3] 106 % of control | [5] 101 % of control

CC(C)(c1cc(Br)sc1Br)c1cc(Br)sc1Br
inactive: dose: 50.0 mg/kg/injection, schedule: Q01DX009 (ip), vehicle: Klucel (hydroxypropylcellulose) (HPC) 95 % of control | [9] 98 % of control | [12] 106 % of control | [10] 101 % of control | [13] 117 % of control | [14] 104 % of control

CCCCCOc1cc(C(C)=O)cc(OC)c1OC(=O)c1cc([N+](=O)[O-])cc([N+](=O)[O-])c1
inactive: dose: 100.0 mg/kg/injection, schedule: Q01DX009 (ip), vehicle: saline with Tween-80 94 % of control | [2] 94 % of control | [4] 102 % of control

CN(C)c1ccc(C(=O)Oc2ccc([N+](=O)[O-])cc2)cc1
inactive: [9] 90 % of control | [6] 95 % of control | [10] 101 % of control | [7] 98 % of control | [11] 102 % of control | [8] 96 % of control

Nc1ccc(SS(N)(=O)=O)cc1
inactive: dose: 100.0 mg/kg/injection, schedule: Q01DX001 (ip), vehicle: saline 98 % of control | dose: 200.0 mg/kg/injection, schedule: Q01DX001 (ip), vehicle: saline 98 % of control
